The source of these data is patent US20200181284A1, “EPIGENETIC INHIBITORS FOR SENSITIZING HEMATOLOGIC OR OTHER MALIGNANCIES TO GLUCOCORTICOID THERAPY” (UNIVERSITY OF SOUTHERN CALIFORNIA, priority 2017, published 2020).

For data set [1], the system named is LAX7R and LAX56 primary human B-ALL cells. Put plainly: Survival of primary B-ALL cells co-cultured with OP-9 feeder cells (Annexin V/7AAD). The settings on record: 100-200 nM Dex alone, 3 or 5 days. The format is cell-based. The procedure:
Primary ALL cells (LAX7R and LAX56) were established from mouse xenografts derived from patient samples (Adam et al., 2017; Hsieh et al., 2013). They were cultured in 24 well tissue-culture plates on irradiated OP-9 cells with growth medium containing MEM-α with 20% heat-inactivated fetal bovine serum, and 100 IU/ml penicillin and 100 μg/ml streptomycin. On day 3 and day 5 after the addition of drugs, ALL cells were collected, and apoptosis was assessed using PE Annexin V Apoptosis Detection Kit with 7-AAD.
As shown FIGS. 41A-1, 41A-2, 41B-1, and 41B-2, LAX7R (FIGS. 41A-1 and 41A-2) or LAX56 (FIGS. 41B-1 and 41B-2) primary human B-ALL cells were co-cultured with OP-9 feeder cells for 3 days (left) or 5 days (right) in the presence of the indicated drugs, and cell survival was determined by staining with Annexin/7AAD. p-value was calculated using a paired t-test, and different symbols were used to indicate p-values between different groups.+indicates statistical significance (+p≤0.05, ++p≤0.01 and + + + p≤0.001) between Dexamethasone or AZD2811 treated group and DMSO control group; # indicates statistical significance (#p≤0.05, ##p≤0.01 and # # # p≤0.001) between AZD2811+Dexamethasone combination group and AZD2811 group; * indicates statistical difference (*p≤0.05, **p≤0.01, * * *p≤0.001) between combination group and respective Dexamethasone treated groups. Values shown are mean and SD for 3 biological replicates, which are representative of 3 independent experiments.

A further data set has as its system NALM-6. Put plainly: Cell death assay (PrestoBlue viability, 3 days). The format is cell-based. The following applies: Homo sapiens. As for the experimental part:
Cell death assays: We used PrestoBlue to measure cell viability in response to knockdown and treatment. Cells were grown to a density of 250,000 cell/ml, then dispensed into black tissue culture plates and grown overnight. In the morning, cells were treated. For both CAL-101 (Selleckchem, S2226) and dex (Sigma, D4902), viability was measured after 3 days. As PrestoBlue measures NADPH/NADH metabolites, the balance of which can be affected by GC treatment, we performed frequent cell count spot checks manually by trypan blue exclusion to ensure that fluorescence measurements reflected true viability. Both CAL-101 and dex were dissolved in ethanol, and used 1:1000 in cell culture for a final ethanol concentration of 0.1%. […] Viabilities and EC50 were then calculated using four parameter non-least squares fitting using Prism 6. qPCR of Causative genes: Cells were grown to a density of 1 million cells/ml, then aliquoted into 6 well plates in the afternoon, then grown overnight. […]
The optimal signal was determined by incubating cells with 1 ^M dex for 0, 4, 8, and 24 hours. […] Each experiment was performed at least three times, and analyzed using GraphPad (Prism 6). Significant differences between drug and control and between either drug alone and combinations was determined by two sided Student's t-test (P-Value<0.05). […]

The next data set has as its system RCH-ACV. Put plainly: Cell death assay (PrestoBlue viability, 3 days). The format is cell-based, human. As for the experimental part: (§1) Cell death assays: We used PrestoBlue to measure cell viability in response to knockdown and treatment. Cells were grown to a density of 250,000 cell/ml, then dispensed into black tissue culture plates and grown overnight. In the morning, cells were treated. For both CAL-101 (Selleckchem, S2226) and dex (Sigma, D4902), viability was measured after 3 days. As PrestoBlue measures NADPH/NADH metabolites, the balance of which can be affected by GC treatment, we performed frequent cell count spot checks manually by trypan blue exclusion to ensure that fluorescence measurements reflected true viability. Both CAL-101 and dex were dissolved in ethanol, and used 1:1000 in cell culture for a final ethanol concentration of 0.1%. Combination treatments were performed in triplicate in 384 well plates with 20 dilutions of dex from 10^M to 0 and 9 dilutions of CAL-101 from 10^M to 0. Viabilities and EC50 were then calculated using four parameter non-least squares fitting using Prism 6. qPCR of Causative genes: Cells were grown to a density of 1 million cells/ml, then aliquoted into 6 well plates in the afternoon, then grown overnight. Cells were then treated with the drugs and times indicated, at which point cells were spun down at 400 g for 5 minutes, the medium aspirated, and the pellet resuspended in 0.7 ml Qiazol/Trizol and frozen. RNA was then isolated using the miRNAeasy protocol. cDNA was then prepared form 1^g of RNA suing SuperScript3, and qPCR performed using BioRad iQ mix. Primers for qPCR were designed using the IDT web site, then tested for each gene. […] Expression levels for each gene were corrected for primer efficiency, normalized to RPL19, then compared to controls (Pfaffl, 2001).
(§2) The optimal signal was determined by incubating cells with 1 ^M dex for 0, 4, 8, and 24 hours. […] Cells were incubated with dex alone, CAL-101 alone, and in combination for 24 hours, then harvested and qPCR performed as described above. Each experiment was performed at least three times, and analyzed using GraphPad (Prism 6). Significant differences between drug and control and between either drug alone and combinations was determined by two sided Student's t-test (P-Value<0.05).
(§3) Three cell lines (NALM6, SUP-B15, and RCH-ACV), one resistant patient sample (HM3101), and one relapsed Phlike xenograft (ALL121) were incubated with increasing concentrations of dex or CAL-101 for 3 days. Cell viability was measured by PrestoBlue staining. Curves, values, and errors are based on at least 3 replicates. Bar plot of the EC50, calculated by four-parameter least-squares fitting (Both plotted and calculated in GraphPad Prism).

In the next data set the test system is SUP-B15. Put plainly: Cell death assay (PrestoBlue viability, 3 days). It is filed as cell-based, human. The following applies: Homo sapiens. As for the experimental part:
as §1, §2, §3

In data set [2] the test system is relapsed B-ALL cells (ALL121). Put plainly: PDX model of ALL: NSG mice engrafted with ALL121, spleen size and human ALL cells in spleen. It is filed as in vivo. The settings on record: dex monotherapy 7.5 mg/kg daily, two weeks.
From the text: As proof of concept, we tested this combination in a PDX model of ALL.
In another data set the test system is NALM-6 cells. Put plainly: shRNA screen: selection of infected NALM-6 cells with dex, viability after each round. The format is cell-based, human. The following applies: for viability at 0.05 µM: Homo sapiens, 50 nM dexamethasone. The procedure: Transduction: NALM-6 cells were grown in T-175 flasks maintaining a cell density below 2 million cells/ml until a sufficient number of cells were obtained. In order to obtain a sufficient number of cells infected with each shRNA to measure both enrichment and depletion in response to dex selection, we sought to infect >1000 cells with each shRNA. In order to minimize double infection, we targeted an infection rate of ˜30%. For the Cancer library, we estimated that for 1000× coverage of 54,775 shRNAs at a 30% infection rate, we would have to start with ˜200 million cells. To ensure optimal infection, NALM-6 cells were plated at density of 1.5 million cells/ml in 6 well plates. Virus was added at a ratio of 1:10 viral supernatant/NALM-6 culture volume. Cells were the spinfected at 1000×g, 33° C., for 2 hours in the presence of 8 µg/ml polybrene. Cells were then washed in PBS, resuspended in fresh RPMI+10% FBS, and allowed to recover. Our actual infection rate was ˜70%, as measured by flow cytometry using the mCherry marker of the pMK1098 vector, for an approximate coverage of 2000 cells for each shRNA. Cells were then selected for infection using 0.5 µg/ml puromycin for 2 days, washed, and allowed to recover. The infected cells were then expanded and split into 5 pools: Infected (Time 0 or T0), Infected that would be untreated (TF), and three pools that would be treated with dex (R1-3). T0 and TF was composed of 100 million cells. T0 was frozen immediately, and TF was allowed to grow to a density no greater than 3 million cells/ml through the course of the experiment. Since we expected ˜80% death upon treatment, we started with 500 million cells each for R1-3.
Selection: Previous attempts at the screen had been hampered by inconsistent infection and selection with dex. We therefore decided to split TF and R1-3 into two experiments and treat with 50 nM dex, which kills ˜80% of NALM-6 cells in 3 days, and 1 pM dex, which kills >90%. TF samples were treated with equal volumes of DMSO vehicle. A separate TF sample was culture for both the 50 nM and 1 pM experiments. Cells were treated with each of these concentrations for three days, washed, allowed to recover, then treated two more times. From infection to the end of the experiment took 35 days for 50 nM dex and 46 days for 1 pM.
AGEK Screen: Based on the results of the Cancer panel screen, we elected to screen the three other panels (Apoptosis, Gene Expression, Kinases) under 50 nM selection by dex. The screen was performed largely as described above, but our infection rate was <30% for a coverage of ˜900 cells/shRNA.

In general, EC50 refers to the concentration that produces a half-maximal response. Broadly, the EC90 is the concentration needed for an effect of 90%. As a reminder, the viability is a read-out of living cells in per cent, often relative to untreated cells. High values mean better survival, low ones a greater loss of cells. Consider `C[C@@H]1C[C@H]2[C@@H]3CCC4=CC(=O)C=C[C@]4(C)[C@@]3(F)[C@@H](O)C[C@]2(C)[C@@]1(O)C(=O)CO` [dex, dexamethasone], for which the cell survival in data set [1] is given as 20-60%. Besides, the EC50 with NALM-6 (NALM-6, 72 h, NALM6, viability after 3 days, read-out: EC50 for dex) was 3.9 nM; in the data set with RCH-ACV (Homo sapiens, 72 h, viability after 3 days, estimate, read-out: EC50 for dex), 500 nM; with SUP-B15 (72 h, SUP-B15, viability after 3 days, read-out: EC50 for dex), 1.6 nM. Besides, the EC90 with NALM-6 (NALM-6, read-out: approximately the EC90 for dex) was around 62.5 nM; in the data set on SUP-B15 (SUP-B15, read-out: approximately the EC90 for dex), around 4 nM. The viability maintained in the data set on RCH-ACV (even at the highest dex concentrations) is recorded as around 50%. In data set [2], the “effect on spleens (spleen size)” value is “no effect”. Moreover, the NALM-6 cells killed is listed as above 90% with NALM-6 cells (1 pM dex) and around 80% in the data set with NALM-6 cells (50 nM dex, 3 days). The viability at 0.05 µM worked out at 52% in the data set with NALM-6 cells (NALM-6, Apoptosis, Gene Expression, and Kinase Panels, treatment number 1); 66% in the data set with NALM-6 cells (NALM-6, Apoptosis, Gene Expression, and Kinase Panels, treatment number 2); 65% in the data set with NALM-6 cells (NALM-6, Apoptosis, Gene Expression, and Kinase Panels, treatment number 3); 18% in the data set with NALM-6 cells (NALM-6, Cancer Panel, treatment number 1); 72% in the data set on NALM-6 cells (NALM-6, Cancer Panel, treatment number 2); 58% with NALM-6 cells (NALM-6, Cancer Panel, treatment number 3).
